In patent publication US20220331303A1, “USE OF AN OREXIN 2 RECEPTOR AGONIST FOR THE TREATMENT OF EXCESSIVE SLEEPINESS” (Takeda Pharmaceutical Company Limited, priority 2019, published 2022):
“Also recorded” adds a separate entry of the source. Where two headings read alike, the source gives them in different places.

Test: Plasma PK of Compound A after a single 9-hour IV infusion in sleep-deprived healthy male subjects
Type: in vivo, human
Conditions: for concentration at 3 h: 3 h post infusion end
Protocol: This was a phase 1b, single-center, randomized, double-blind, double-dummy, placebo- and active-controlled, 4-period Williams design crossover study to evaluate the PK, PD, and safety of Compound A in sleep-deprived healthy volunteers. Compound A was administered as a 9-hour IV infusion.
Healthy adult male subjects aged 18 to 40 years, inclusive, who satisfied the inclusion and exclusion criteria were enrolled in the trial. On Day 1 of treatment period 1, eligible subjects were equally randomized to 4 treatment sequence groups (sequence 1 to 4) which defined the order of administration for Compound A LD, Compound A HD (both delivered as a 9-hour IV infusion), modafinil 300 mg, and placebo.
During the day before dosing on Day 1, participants were administered the KSS at scheduled timepoints. A practice MWT session was performed on Day 1 treatment period 1 (only once during the entire study) to familiarize subjects with the procedures. Study drug was administered in the clinic in the evening on Day 1 of each treatment period. Subjects underwent the MWT and KSS at specified timepoints after the start of the infusion. Subjects were required to stay awake between the MWT tests. Following completion of the IV infusion on Day 2, subjects underwent an additional MWT test. When the final MWT test and cognitive testing were completed, subjects were allowed to sleep (recovery sleep) for approximately 6 hours. PSG recording was collected during this time. Subjects were discharged from the unit after completion on Day 2 with continuing actigraphy upon discharge (to begin on Day −6 before the next treatment period). The interval between each subsequent treatment period was at least 7 days to ensure that the subject's circadian rhythm had returned to a normal cycle. Subject's vital signs, including BP, were monitored during the dosing and testing period. Blood samples for determination of Compound A plasma concentrations were collected at specified timepoints on Days 1 and 2 of each treatment period. Subjects completed the Columbia-Suicide Severity Rating Scale (C-SSRS) during screening, before study drug administration, and before discharge on Day 2 of each treatment period.
Plasma concentrations were tabulated, and descriptive statistics were calculated for each Compound A dose level and are listed in Tables 3-6 for Compound A. The mean plasma concentration versus time plots for Compound A are shown in FIG. 1.

[1] = 2.55-fold increase in dose (44 to 112 mg)

COC(=O)N1CCC[C@H](NS(C)(=O)=O)[C@@H]1CO[C@H]1CC[C@@H](c2ccccc2)CC1 [Compound A, methyl (2R,3S)-3-((methylsulfonyl)amino)-2-(((cis-4-phenylcyclohexyl)oxy)methyl)piperidine-1-carboxylate]
Fold increase in AUClast [1]: 2.45 fold
Fold increase in AUC∞ [1]: 2.46 fold
Fold increase in Ceoi [1]: 2.45 fold
Fold increase in Cmax [1]: 2.52 fold
Dose proportionality of systemic exposure (between 44 and 112 mg dose levels): approximately dose-proportionately; also recorded: approximately dose proportionately
Mean plasma concentration as share of the observed maximum concentration (by 4 hours after start of infusion, 44 mg and 112 mg): more than 80%
concentration at 1 h (male, human, plasma, iv, 44 mg, 44 mg 9-h IV infusion, 1 h post infusion start, read-out: Plasma concentration (GM)): 63.1 ng/mL
concentration at 1 h (male, human, plasma, iv, 44 mg, 44 mg 9-h IV infusion, 1 h post infusion start, read-out: Plasma concentration (Mean)): 64.4 ng/mL
concentration at 1 h (male, human, plasma, iv, 44 mg, 44 mg 9-h IV infusion, 1 h post infusion start, read-out: Plasma concentration (Median)): 65.5 ng/mL
concentration at 2 h (male, human, plasma, iv, 44 mg, 44 mg 9-h IV infusion, 2 h post infusion start, read-out: Plasma concentration (GM)): 72.9 ng/mL
concentration at 2 h (male, human, plasma, iv, 44 mg, 44 mg 9-h IV infusion, 2 h post infusion start, read-out: Plasma concentration (Mean)): 74 ng/mL
concentration at 2 h (male, human, plasma, iv, 44 mg, 44 mg 9-h IV infusion, 2 h post infusion start, read-out: Plasma concentration (Median)): 72.6 ng/mL
concentration at 4 h (male, human, plasma, iv, 44 mg, 44 mg 9-h IV infusion, 4 h post infusion start, read-out: Plasma concentration (GM)): 88.3 ng/mL
concentration at 4 h (male, human, plasma, iv, 44 mg, 44 mg 9-h IV infusion, 4 h post infusion start, read-out: Plasma concentration (Mean)): 89.3 ng/mL
concentration at 4 h (male, human, plasma, iv, 44 mg, 44 mg 9-h IV infusion, 4 h post infusion start, read-out: Plasma concentration (Median)): 88.2 ng/mL
concentration at 6 h (male, human, plasma, iv, 44 mg, 44 mg 9-h IV infusion, 6 h post infusion start, read-out: Plasma concentration (GM)): 97.8 ng/mL
concentration at 6 h (male, human, plasma, iv, 44 mg, 44 mg 9-h IV infusion, 6 h post infusion start, read-out: Plasma concentration (Mean)): 98.7 ng/mL
concentration at 6 h (male, human, plasma, iv, 44 mg, 44 mg 9-h IV infusion, 6 h post infusion start, read-out: Plasma concentration (Median)): 97.4 ng/mL
concentration at 9 h (male, human, plasma, iv, 44 mg, 44 mg 9-h IV infusion, 9 h post infusion start, read-out: Plasma concentration (GM)): 102 ng/mL
concentration at 9 h (male, human, plasma, iv, 44 mg, 44 mg 9-h IV infusion, 9 h post infusion start, read-out: Plasma concentration (Mean)): 103 ng/mL
concentration at 9 h (male, human, plasma, iv, 44 mg, 44 mg 9-h IV infusion, 9 h post infusion start, read-out: Plasma concentration (Median)): 101 ng/mL
AUC(0-t) (male, human, plasma, iv, 44 mg, 44 mg [LD] single 9-hour IV infusion, read-out: AUClast (GM)): 933 ng·h/mL
AUC(0-t) (male, human, plasma, iv, 44 mg, 44 mg [LD] single 9-hour IV infusion, read-out: AUClast (Mean)): 940 ng·h/mL
AUC(0-t) (male, human, plasma, iv, 44 mg, 44 mg [LD] single 9-hour IV infusion, read-out: AUClast (Median)): 888 ng·h/mL
AUC(0-inf) (male, human, plasma, iv, 44 mg, 44 mg [LD] single 9-hour IV infusion, read-out: AUC∞ (GM)): 955 ng·h/mL
AUC(0-inf) (male, human, plasma, iv, 44 mg, 44 mg [LD] single 9-hour IV infusion, read-out: AUC∞ (Mean)): 964 ng·h/mL
AUC(0-inf) (male, human, plasma, iv, 44 mg, 44 mg [LD] single 9-hour IV infusion, read-out: AUC∞ (Median)): 911 ng·h/mL
clearance (male, human, plasma, iv, 44 mg, 44 mg [LD] single 9-hour IV infusion, read-out: CL (Mean) (converted)): 773 mL/min
clearance (male, human, plasma, iv, 44 mg, 44 mg [LD] single 9-hour IV infusion, read-out: CL (Median) (converted)): 805 mL/min
Cmax (male, human, plasma, iv, 44 mg, 44 mg [LD] single 9-hour IV infusion, read-out: Cmax (GM)): 106 ng/mL
Cmax (male, human, plasma, iv, 44 mg, 44 mg [LD] single 9-hour IV infusion, read-out: Cmax (Mean)): 106 ng/mL
Cmax (male, human, plasma, iv, 44 mg, 44 mg [LD] single 9-hour IV infusion, read-out: Cmax (Median)): 102 ng/mL
Vd (male, human, plasma, iv, 44 mg, 44 mg [LD] single 9-hour IV infusion, read-out: Vss (Mean)): 107 L
Vd (male, human, plasma, iv, 44 mg, 44 mg [LD] single 9-hour IV infusion, read-out: Vss (Median)): 99.2 L
Vd (male, human, plasma, iv, 44 mg, 44 mg [LD] single 9-hour IV infusion, read-out: Vz (Mean)): 207 L
Vd (male, human, plasma, iv, 44 mg, 44 mg [LD] single 9-hour IV infusion, read-out: Vz (Median)): 211 L
Tmax (male, human, plasma, iv, 44 mg, 44 mg [LD] single 9-hour IV infusion, read-out: tmax (Mean)): 8.15 h
Tmax (male, human, plasma, iv, 44 mg, 44 mg [LD] single 9-hour IV infusion, read-out: tmax (Median)): 9 h
concentration at 0.17 h (male, human, plasma, iv, 112 mg, 112 mg 9-h IV infusion, 0.17 h post infusion end, read-out: Plasma concentration (GM)): 194 ng/mL
concentration at 0.5 h (male, human, plasma, iv, 112 mg, 112 mg 9-h IV infusion, 0.5 h post infusion end, read-out: Plasma concentration (GM)): 122 ng/mL
concentration at 1 h (male, human, plasma, iv, 112 mg, 112 mg 9-h IV infusion, 1 h post infusion end, read-out: Plasma concentration (GM)): 97.5 ng/mL
concentration at 2 h (male, human, plasma, iv, 112 mg, 112 mg 9-h IV infusion, 2 h post infusion end, read-out: Plasma concentration (GM)): 56.7 ng/mL
concentration at 3 h (male, human, plasma, iv, 112 mg, 112 mg 9-h IV infusion, read-out: Plasma concentration (GM)): 50.8 ng/mL
concentration at 3 h (male, human, plasma, iv, 112 mg, 112 mg 9-h IV infusion, read-out: Plasma concentration (Median)): 54 ng/mL
concentration at 4 h (male, human, plasma, iv, 112 mg, 112 mg 9-h IV infusion, 4 h post infusion end, read-out: Plasma concentration (GM)): 40.4 ng/mL
concentration at 4 h (male, human, plasma, iv, 112 mg, 112 mg 9-h IV infusion, 4 h post infusion end, read-out: Plasma concentration (Median)): 44.7 ng/mL
concentration at 6 h (male, human, plasma, iv, 112 mg, 112 mg 9-h IV infusion, 6 h post infusion end, read-out: Plasma concentration (GM)): 23.6 ng/mL
concentration at 6 h (male, human, plasma, iv, 112 mg, 112 mg 9-h IV infusion, 6 h post infusion end, read-out: Plasma concentration (Median)): 23.4 ng/mL
concentration at 9 h (male, human, plasma, iv, 112 mg, 112 mg 9-h IV infusion, 9 h post infusion end, read-out: Plasma concentration (GM)): 13 ng/mL
concentration at 9 h (male, human, plasma, iv, 112 mg, 112 mg 9-h IV infusion, 9 h post infusion end, read-out: Plasma concentration (Median)): 11.9 ng/mL
AUC(0-t) (male, human, plasma, iv, 112 mg, 112 mg [HD] single 9-hour IV infusion, read-out: AUClast (GM)): 2300 ng·h/mL
AUC(0-t) (male, human, plasma, iv, 112 mg, 112 mg [HD] single 9-hour IV infusion, read-out: AUClast (Mean)): 2300 ng·h/mL
AUC(0-t) (male, human, plasma, iv, 112 mg, 112 mg [HD] single 9-hour IV infusion, read-out: AUClast (Median)): 2300 ng·h/mL
AUC(0-inf) (male, human, plasma, iv, 112 mg, 112 mg [HD] single 9-hour IV infusion, read-out: AUC∞ (GM)): 2360 ng·h/mL
AUC(0-inf) (male, human, plasma, iv, 112 mg, 112 mg [HD] single 9-hour IV infusion, read-out: AUC∞ (Mean)): 2370 ng·h/mL
AUC(0-inf) (male, human, plasma, iv, 112 mg, 112 mg [HD] single 9-hour IV infusion, read-out: AUC∞ (Median)): 2380 ng·h/mL
clearance (male, human, plasma, iv, 112 mg, 112 mg [HD] single 9-hour IV infusion, read-out: CL (Mean) (converted)): 793 mL/min
clearance (male, human, plasma, iv, 112 mg, 112 mg [HD] single 9-hour IV infusion, read-out: CL (Median) (converted)): 785 mL/min
Cmax (male, human, plasma, iv, 112 mg, 112 mg [HD] single 9-hour IV infusion, read-out: Cmax (GM)): 266 ng/mL
Cmax (male, human, plasma, iv, 112 mg, 112 mg [HD] single 9-hour IV infusion, read-out: Cmax (Mean)): 268 ng/mL
Cmax (male, human, plasma, iv, 112 mg, 112 mg [HD] single 9-hour IV infusion, read-out: Cmax (Median)): 260 ng/mL
Vd (male, human, plasma, iv, 112 mg, 112 mg [HD] single 9-hour IV infusion, read-out: Vss (Mean)): 112 L
Vd (male, human, plasma, iv, 112 mg, 112 mg [HD] single 9-hour IV infusion, read-out: Vss (Median)): 112 L
Vd (male, human, plasma, iv, 112 mg, 112 mg [HD] single 9-hour IV infusion, read-out: Vz (Mean)): 223 L
Vd (male, human, plasma, iv, 112 mg, 112 mg [HD] single 9-hour IV infusion, read-out: Vz (Median)): 216 L
Tmax (male, human, plasma, iv, 112 mg, 112 mg [HD] single 9-hour IV infusion, read-out: tmax (Mean)): 7.88 h
Tmax (male, human, plasma, iv, 112 mg, 112 mg [HD] single 9-hour IV infusion, read-out: tmax (Median)): 9 h
half-life (male, human, plasma, after end of 9-h IV infusion, biphasic decline, read-out: Mean terminal half-life (t1/2z) (converted)): ~3 h
